Assay results from US8202910B2 (Sequella, Inc., priority 2006, dated 2012).
Where “and” joins values, the source holds several entries; their conditions need not be identical. Identical values can stand only once. Like-named read-outs stand apart in the source and are kept apart here.

How the values were obtained:
[1] = system: H37Rv strain of Mycobacterium tuberculosis; assay: microbe, parasite or virus in culture; format: cell-based
cells = assay: LD50 for selectivity index (Table 10); format: cell-based, Mycobacterium tuberculosis; conditions: for SI (Selectivity Index): LD50 : MIC
Description: Table 10 lists MIC and LD50 data for selected compounds. […] Table 11 lists MIC data for purified substituted ethylene diamines in comparison to ethambutol (EMB).

[2] = system: monkey kidney cells (Vero); assay: In vitro toxicity, Vero cells; format: cell-based; conditions: Primates
Description: Twenty six compounds (including 37, 59 and 109) were tested in an in vitro model of toxicity using monkey kidney cells (Vero) and human cervical cancer cells (HeLa) using methods well known to those skilled in the art. The data from this toxicity testing and the MIC data were used to calculate a selectivity index (SI), the ratio of IC50:MIC (Table 15). Selectivity Indexes were ranging from 1.76 to 16.67.

M. tuberculosis H37Rv = assay: In vivo efficacy, mice infected i.v. with M. tuberculosis, CFU in spleen and lungs; parameters: species or system C57BL/6 mice; conditions: for activity in vivo, spleen and lung: 25 mg/kg, 5×10^6 CFU, 4 weeks
wild type of M.tb = assay: MIC, secondary screening, wild type; format: cell-based, Mycobacterium tuberculosis; conditions: Mycobacterium tuberculosis, WT; EMB, RL241, Cmpd#59 as 2HCl salt, Cmpd#109 as 2CF3COOH salt; read-out: MIC
[3] = Mycobacterium tuberculosis, H37RV, read-out: MIC
[4] = Mycobacterium tuberculosis, H37RV, Table 10, from uM and MW, read-out: MIC
[5] = Mycobacterium tuberculosis, H37RV, Table 10, read-out: MIC
[6] = concentration at which 50% of the cells are killed
[7] = Mycobacterium tuberculosis, H37RV, Table 15, read-out: MIC

CCC(CO)NCCN[C@@H]1C[C@@H]2CC([C@H]1C)C2(C)C (mixture of isomers) [Compound 68]
MIC [1, 3]: 500 µM

COc1ccc(CCNCCNCC23CC4CC(CC(C4)C2)C3)cc1OC [Compound 4]
MIC [1]: 62.5 µM | MIC [1, 3]: 125 µM

CC(CNCCC(c1ccccc1)c1ccccc1)NCC12CC3CC(CC(C3)C1)C2 (stereo not drawn) [Compound 6]
MIC [1, 4]: 4.19 µg/mL | MIC [1, 5]: 7.81 µM | SI (Selectivity Index) (cells): 2.56 | LD50 (cells; [6]): 20 µM | LD50 (cells; from uM and MW): 10.72 µg/mL

CC1CC(C)CN(CCNCCC(c2ccccc2)c2ccccc2)C1 (stereo not drawn) [Compound 15, 1-{2-[N-(3,3-Diphenylpropyl)]-aminoethyl}-3,5-dimethyl-piperidine]
MIC [1]: 250 µM and 500 µM | MIC [1, 3]: > 500 µM

CC1CCCC(NCCNCC(c2ccccc2)c2ccccc2)C1C (stereo not drawn) [Compound 29, N-(2,2-Diphenylethyl)-N′-(2,3-dimethylcylcohexyl)ethane-1,2-diamine]
MIC [1]: 31.25 µM | MIC [1, 3]: 62.5 µM

CC(C)(C)CC(C)(C)NCCNCC(c1ccccc1)c1ccccc1 [Compound 33, N-(2,2-Diphenylethyl)-N′-(1,1,3,3-tetramethylbutyl)-ethane-1,2-diamine]
MIC [1]: 31.25 µM | MIC [1, 3]: 62.5 µM

c1ccc(C(CNCCNCC23CC4CC(CC(C4)C2)C3)c2ccccc2)cc1 [Compound 34, N-(2,2-Diphenylethyl)-N′-(1-methyladamantyl)ethane-1,2-diamine]
MIC [1, 4]: 3.97 µg/mL | MIC [1, 5]: 7.81 µM | SI (Selectivity Index) (cells): 4.096 | LD50 (cells; [6]): 32 µM | LD50 (cells; from uM and MW): 16.256 µg/mL

CC(CNCC(c1ccccc1)c1ccccc1)NCC1CCC2C[C@@H]1C2(C)C (stereo partly drawn) [Compound 38, N-(−)-cis-(Myrtanyl)-N′-(2,2-diphenylethyl)propyl-1,2-diamine]
MIC [1, 7]: 6.25 µM | IC50 [2]: 33 µM

C[C@@H]1C2C[C@@H](C[C@H]1NCCNCC(c1ccccc1)c1ccccc1)C2(C)C [Compound 40, N-(2,2-Diphenylethyl)-N′-(1R,2R,3R,5S)-(−)-isopinocampheylethane-1,2-diamine]
MIC [1, 7]: 15.6 µM | IC50 [2]: 25 µM

CC1CCCC(NCCNC[C@@H]2CCC3C[C@@H]2C3(C)C)C1C (stereo partly drawn) [Compound 41, N-(−)-cis-(Myrtanyl)-N′-(2,3-dimethylcyclohexyl)ethane-1,2-diamine]
MIC [1, 7]: 3.13 µM | IC50 [2]: 19 µM

C[C@@H]1C2C[C@@H](C[C@H]1NCCNCC1CCC3C[C@@H]1C3(C)C)C2(C)C (stereo partly drawn) [Compound 47, N-(−)-cis-Myrtanyl-N′-(1R, 2R, 3R, 5S)-(−)-isopinocampheylethane-1,2-diamine]
MIC [1, 4]: 7.06 µg/mL | MIC [1, 5]: 15.6 µM | SI (Selectivity Index) (cells): 1.6 | LD50 (cells; [6]): 25 µM | LD50 (cells; from uM and MW): 11.3 µg/mL

C[C@@H]1[C@@H](NCCNC2CCCCCCC2)C[C@H]2C[C@@H]1C2(C)C [Compound 53, N-Cyclooctyl-N′-(1S, 2S, 3S, 5R)-(+)-isopinocampheyl-ethane-1,2-diamine]
MIC [1, 3]: 31.2 µM

C1CCCC(NCCNCC23CC4CC(CC(C4)C2)C3)CCC1 [Compound 55, N-(Cyclooctyl)-N′-(1-methyladamantyl)ethane-1,2-diamine]
MIC [1]: 15.625 µM and 15.6 µM | MIC [1, 7]: 15.6 µM | MIC [1, 3]: 15.6 µM | IC50 [2]: 34 µM

CC[C@@H](CO)NCCNC1CCCCCCC1 [Compound 56, N-(Cyclooctyl)-N′-(2S)-[2-(1-hydroxybutyl)]ethane-1,2-diamine]
MIC [1]: >500 µM | MIC [1, 3]: 500 µM

CC1(C)C2CCC(CNCCNC3CCCCCCC3)[C@@H]1C2 (stereo partly drawn) [Compound 57, N-(−)-cis-Myrtanyl-N′-(cyclooctyl)ethane-1,2-diamine]
MIC [1, 4]: 6.66 µg/mL | MIC [1, 5]: 15.6 µM | MIC [1, 7]: 11.7 µM | SI (Selectivity Index) (cells): 1.152 | LD50 (cells; [6]): 18 µM | LD50 (cells; from uM and MW): 7.668 µg/mL | IC50 [2]: 22 µM

C1CCCC(NCCNC2C3CC4CC(C3)CC2C4)CCC1 (stereo not drawn) [Compound 58, N-(Cyclooctyl)-N′-(2-adamantyl)ethane-1,2-diamine]
MIC [1, 7]: 12.5 µM | IC50 [2]: 82 µM | activity in vivo, spleen and lung (M. tuberculosis H37Rv): active in vivo in both spleen and lung

CC(NCCNC1CCCCCCC1)c1cccc2ccccc12 (stereo not drawn) [Compound 61]
MIC [1]: 31.25 µM | MIC [1, 3]: 62.5 µM

c1ccc(C2CC2NCCNC2CCCCCCC2)cc1 (stereo not drawn) [Compound 63, N-(Cyclooctyl)-N′-trans-(2-phenylcyclopropyl)ethane-1,2-diamine]
MIC [1]: 31.25 µM | MIC [1, 3]: 62.5 µM

c1ccc(C2CC2NCCNC2C3CC4CC(C3)CC2C4)cc1 (stereo not drawn) [Compound 64, N-(2-Adamantyl)-N′- trans-(2-phenylcyclopropyl)ethane-1,2-diamine]
MIC [1, 3]: 31.2 µM

c1ccc(C2CC2NCCNC23CC4CC(CC(C4)C2)C3)cc1 (stereo not drawn) [Compound 65, N-(1-Adamantyl)-N′- trans-(2-phenylcyclopropyl)ethane-1,2-diamine]
MIC [1]: 31.25 µM | MIC [1, 4]: 6.72 µg/mL | MIC [1, 5]: 15.6 µM | MIC [1, 3]: 15.6 µM | SI (Selectivity Index) (cells): 3.84 | LD50 (cells; [6]): 60 µM | LD50 (cells; from uM and MW): 25.8 µg/mL

C[C@@H]1C2C[C@@H](C[C@H]1NCCNCCC(c1ccccc1)c1ccccc1)C2(C)C [Compound 66, N-(3,3-Diphenylpropyl)-N′-(1R, 2R, 3R, 5S)-(−)-isopinocampheylethane-1,2-diamine]
MIC [1, 7]: 15.6 µM | IC50 [2]: 28 µM

C[C@@H]1C2C[C@@H](C[C@H]1NCCNC(c1ccccc1)c1ccccc1)C2(C)C [Compound 71, N-(1,1-Diphenylmethyl)-N′-(1R, 2R, 3R, 5S)-(−)-isopinocampheylethane-1,2-diamine]
MIC [1]: 31.25 µM | MIC [1, 3]: 62.5 µM

COc1ccccc1CCNCCNC1C2CC3CC(C2)CC1C3 (stereo not drawn) [Compound 73, N-(2-Adamantyl)-N′-[2-(2-methoxyphenyl)ethyl]ethane-1,2-diamine]
MIC [1, 7]: 12.5 µM | IC50 [2]: 81 µM | activity in the spleen compared with EMB (M. tuberculosis H37Rv; 1 mg/kg and 10 mg/kg, 5×10^5 CFU, chemotherapy from day 20): equal to that of EMB at 100 mg/kg

C=CCN(CCNCCc1ccccc1OC)C1CCCC1 [Compound 76, N-Allyl-N-cyclopentyl-N′-[2-(2-methoxyphenyl)ethyl]ethane-1,2-diamine]
MIC [1]: 31.25 µM | MIC [1, 3]: 62.5 µM

c1ccc2c(c1)CC(NCCNC1C3CC4CC(C3)CC1C4)C2 (stereo not drawn) [Compound 78, N-2-Adamantyl-N′-2,3-dihydro-1H-inden-2-yl-ethane-1,2-diamine]
MIC [1, 7]: 15.6 µM | IC50 [2]: 130 µM

C1CCCC(NCCNC2CCCCCCC2)CCC1 [Compound 103, N,N′-Bis(cyclooctyl)ethane-1,2-diamine]
MIC [1]: 62.5 µM | MIC [1, 3]: 31.2 µM

CCOCCCNCCNCC(c1ccccc1)c1ccccc1 [Compound 107]
MIC [1]: 250 µM | MIC [1, 3]: 500 µM

CCC1CCCCN1CCNC/C=C(\C)CCC=C(C)C (stereo not drawn) [Compound 111, N-[2-(N′-Geranyl)aminoethyl]-2-ethylpiperidine]
MIC [1]: 7.813 µM and 7.8 µM | MIC [1, 4]: 3.22 µg/mL | MIC [1, 5]: 7.81 µM | MIC [1, 7]: 7.81 µM | MIC [1, 3]: 7.81 µM | SI (Selectivity Index) (cells): 5.632 | LD50 (cells; [6]): 44 µM | LD50 (cells; from uM and MW): 18.128 µg/mL | IC50 [2]: 45 µM | anti-tuberculosis activity compared with EMB (M. tuberculosis H37Rv; 10 mg/kg, B6 mice, 5×10^5 CFU, chemotherapy from day 20): comparable to that of EMB at 100 mg/kg | activity in vivo, spleen and lung (M. tuberculosis H37Rv): active in vivo in both spleen and lung

C=CCN(CCNCCc1ccccc1Cl)C1CCCC1 [Compound 118, N-2-(2-Chlorophenyl)ethyl-N′-allyl-N′-(cyclopentyl)ethane-1,2-diamine]
MIC [1]: 62.5 µM | MIC [1, 3]: 31.2 µM

Fc1cccc(CCNCCNCCc2ccccc2Cl)c1 [Compound 119, N-2-(2-Chlorophenyl)ethyl-N′-[2-(3-fluorophenyl)-ethyl]ethane-1,2-diamine]
MIC [1]: 62.5 µM | MIC [1, 3]: 125 µM

CC(CNC[C@@H]1CCC2C[C@@H]1C2(C)C)NCC1CCC2C[C@@H]1C2(C)C (stereo partly drawn) [Compound 125, N,N′-bis-(−)-cis-Myrtanylpropane-1,2-diamine]
MIC [1]: 15.625 µM | MIC [1, 3]: 15.6 µM

CC(NCCNCC(c1ccccc1)c1ccccc1)C(O)c1ccc(O)c(O)c1 (stereo not drawn) [Compound 134, N-[2-(N′-2,2-Diphenylethyl)-aminoethyl]-(−)-3,4-dihydroxynorephedrine]
MIC [1]: 500 µM | MIC [1, 3]: > 500 µM

COc1ccccc1CCNCCN[C@@H]1C[C@@H]2CC([C@H]1C)C2(C)C [Compound 151, N-[2-(2-Methoxy)phenylethyl]-N′-(1R, 2R, 3R, 5S)-(−)-isopinocampheyl-ethane-1,2-diamine]
MIC [1]: 7.813 µM | MIC [1, 4]: 3.52 µg/mL | MIC [1, 5]: 7.81 µM | MIC [1, 3]: 15.6 µM | SI (Selectivity Index) (cells): 5.248 | LD50 (cells; [6]): 41 µM | LD50 (cells; from uM and MW): 18.45 µg/mL

COc1ccc(CCNCC(NCCc2ccc(F)cc2)c2ccccc2)cc1 (stereo not drawn) [Compound 164, N^1-[2-(4-fluorophenyl)ethyl]-N^2-[2-(4-Methoxy)phenylethyl)-1-phenylethane-1,2-diamine]
MIC [1]: 125 µM | MIC [1, 3]: 62.5 µM

CC1(C)CC2CC(C)(CN2CCNC[C@@H]2CCC3C[C@@H]2C3(C)C)C1 [MP 116]
MIC (wild type of M.tb): 6.25 µg/mL

C[C@@H]1C2C[C@@H](C[C@H]1NCCNC[C@@H]1CCC3C[C@@H]1C3(C)C)C2(C)C [MP 117]
MIC (wild type of M.tb): 6.25 µg/mL

C(CNC1C2CC3CC(C2)CC1C3)NC1C2CC3CC(C2)CC1C3 (stereo not drawn) [SQBisAd, Bis(2-Adamantyl)ethylenediamine]
MIC (Minimal Inhibitory Concentration) compared with compound 109 [1]: equal or better than compound 109
